In the supplement of paper PMC13380429:

Assays:
Settings in all cases: 72 h
Vero E6 [1] = test: drug sensitivity score (DSS) for viability; higher = more toxic; extreme values may be limits of the assay
HepG2 [2] = test: as above
Caco-2 [3] = test: as above
Calu-3 [4] = test: as above
U2OS [5] = test: as above
Vero E6 [6] = test: relative viability EC50 (midpoint between 100% and the lowest measured viability); higher = less toxic
HepG2 [7] = test: as above
Caco-2 [8] = test: as above
Calu-3 [9] = test: as above
U2OS [10] = test: as above
Vero E6 [11] = test: cell viability relative to DMSO; higher = less toxic
HepG2 [12] = test: as above
Caco-2 [13] = test: as above
Calu-3 [14] = test: as above
U2OS [15] = test: as above

Row | SMILES | drug sensitivity score (Vero E6 [1]) | drug sensitivity score (HepG2 [2]) | drug sensitivity score (Caco-2 [3]) | drug sensitivity score (Calu-3 [4]) | drug sensitivity score (U2OS [5]) | relative viability EC50 (Vero E6 [6]) [µM] | relative viability EC50 (HepG2 [7]) [µM] | relative viability EC50 (Caco-2 [8]) [µM] | relative viability EC50 (Calu-3 [9]) [µM] | relative viability EC50 (U2OS [10]) [µM] | cell viability (Vero E6 [11]; 1 nM) [%] | cell viability (Vero E6 [11]; 10 nM) [%] | cell viability (Vero E6 [11]; 100 nM) [%] | cell viability (Vero E6 [11]; 1000 nM) [%] | cell viability (Vero E6 [11]; 10000 nM) [%] | cell viability (HepG2 [12]; 1 nM) [%] | cell viability (HepG2 [12]; 10 nM) [%] | cell viability (HepG2 [12]; 100 nM) [%] | cell viability (HepG2 [12]; 1000 nM) [%] | cell viability (HepG2 [12]; 10000 nM) [%] | cell viability (Caco-2 [13]; 1 nM) [%] | cell viability (Caco-2 [13]; 10 nM) [%] | cell viability (Caco-2 [13]; 100 nM) [%] | cell viability (Caco-2 [13]; 1000 nM) [%] | cell viability (Caco-2 [13]; 10000 nM) [%] | cell viability (Calu-3 [14]; 1 nM) [%] | cell viability (Calu-3 [14]; 10 nM) [%] | cell viability (Calu-3 [14]; 100 nM) [%] | cell viability (Calu-3 [14]; 1000 nM) [%] | cell viability (Calu-3 [14]; 10000 nM) [%] | cell viability (U2OS [15]; 1 nM) [%] | cell viability (U2OS [15]; 10 nM) [%] | cell viability (U2OS [15]; 100 nM) [%] | cell viability (U2OS [15]; 1000 nM) [%] | cell viability (U2OS [15]; 10000 nM) [%]
1 | NC(=O)Cc1cccc(C(=O)c2ccccc2)c1N [nepafenac] | 0 | 0 | 0 | 0 | 0 | > 10 | > 10 | > 10 | > 10 | > 10 | 106 | 104 | 106 | 99.3 | 102 | 116 | 94.8 | 100 | 99.9 | 105 | 96.6 | 94.9 | 90.7 | 102 | 90.7 | 101 | 97.9 | 95.6 | 95.3 | 97.9 | 99.5 | 102 | 94.5 | 98.8 | 93.5
2 | Cc1cc(O)c2c(c1)C(=O)c1cccc(O)c1C2=O [chrysophanic-acid] | 0 | 0 | 0.8 | 0 | 0 | > 10 | > 10 | > 10 | > 10 | > 10 | 93.5 | 97.3 | 100 | 93.5 | 96.1 | 98.4 | 104 | 97.8 | 95.7 | 105 | 102 | 91.2 | 92 | 92.5 | 88.9 | 104 | 98.1 | 92.4 | 91.2 | 93 | 99.5 | 103 | 96.7 | 104 | 97.7
3 | CN1CCCC(n2nc(Cc3ccc(Cl)cc3)c3ccccc3c2=O)CC1 (stereo not given) [azelastine] | 0 | 0.3 | 0 | 0 | 0 | > 10 | > 10 | > 10 | > 10 | > 10 | 108 | 95 | 110 | 103 | 94.9 | 113 | 91.5 | 101 | 89.3 | 89.2 | 95.2 | 91.2 | 98.2 | 94.2 | 87 | 97.1 | 96.7 | 105 | 114 | 92.3 | 104 | 111 | 98.8 | 100 | 93.4
4 | C#C[C@]1(O)CC[C@H]2[C@@H]3CCC4=CC(=O)CC[C@]4(C)[C@H]3CC[C@@]21C [ethisterone] | 0 | 0 | 0 | 0 | 0 | > 10 | > 10 | > 10 | > 10 | > 10 | 106 | 102 | 105 | 101 | 95.6 | 109 | 102 | 97.9 | 95.1 | 97.6 | 89.4 | 103 | 89.4 | 91.1 | 97.5 | 95.7 | 95.9 | 103 | 103 | 102 | 97.3 | 103 | 94.6 | 96.4 | 102
5 | Cc1[nH]c2ccccc2c1CCNCc1ccc(/C=C/C(=O)NO)cc1 [panobinostat] | 22.3 | 26.6 | 22.3 | 19.4 | 22.6 | 0.142 | 0.052 | 0.136 | 0.175 | 0.127 | 101 | 97.8 | 70.8 | -0.4 | -0.5 | 104 | 80.6 | 36.8 | -0.3 | -0.4 | 99.8 | 110 | 68.4 | 1 | 1.1 | 113 | 113 | 67.8 | 17.5 | 6 | 99.2 | 97 | 62.4 | 1.4 | 0.8
6 | Cn1c2c(c3ccccc31)CCNCC2 | 0 | 0 | 0 | 0 | 0 | > 10 | > 10 | > 10 | > 10 | > 10 | 102 | 103 | 104 | 108 | 99.6 | 93 | 98.3 | 93.1 | 103 | 98.4 | 109 | 98.6 | 102 | 97.9 | 97.1 | 96.7 | 101 | 99.3 | 103 | 96.8 | 100 | 94.4 | 98.3 | 95.9 | 104
7 | O=C1OC(OC(=O)c2cccnc2Nc2cccc(C(F)(F)F)c2)c2ccccc21 (stereo not given) [talniflumate] | 0 | 0 | 0 | 0 | 0 | > 10 | > 10 | > 10 | > 10 | > 10 | 99 | 97.6 | 96.8 | 91 | 95.3 | 96.3 | 89.6 | 104 | 96.7 | 104 | 95.4 | 96.9 | 99.5 | 102 | 104 | 90.9 | 100 | 95 | 99.1 | 101 | 97.1 | 101 | 98.9 | 102 | 103
8 | C=CCSCC1Nc2cc(Cl)c(S(N)(=O)=O)cc2S(=O)(=O)N1 (stereo not given) [althiazide] | 0 | 0 | 0 | 0 | 0 | > 10 | > 10 | > 10 | > 10 | > 10 | 97.8 | 97.2 | 98.8 | 104 | 112 | 109 | 116 | 94.2 | 102 | 107 | 90.1 | 96.8 | 93 | 90.9 | 89.8 | 111 | 94.8 | 112 | 112 | 101 | 96.1 | 95.5 | 100 | 96.9 | 100
9 | CC(C)N(CCC(C(N)=O)(c1ccccc1)c1ccccn1)C(C)C (stereo not given) [disopyramide] | 0 | 0 | 0 | 0 | 0 | > 10 | > 10 | > 10 | > 10 | > 10 | 102 | 101 | 96 | 97.7 | 97.5 | 105 | 86.8 | 94.7 | 91.9 | 99.4 | 94.4 | 104 | 101 | 102 | 91.8 | 101 | 93.2 | 96.3 | 96.9 | 89.7 | 103 | 102 | 100 | 99.7 | 95.7
10 | Cc1cc(NC(=O)C2=C(O)c3ccccc3S(=O)(=O)N2C)no1 [isoxicam] | 0 | 0 | 0 | 0 | 0 | > 10 | > 10 | > 10 | > 10 | > 10 | 95.3 | 94.1 | 102 | 102 | 106 | 101 | 84.5 | 87.3 | 103 | 100 | 99.4 | 94.8 | 97.9 | 96.2 | 109 | 113 | 109 | 97.7 | 98.1 | 104 | 95.2 | 101 | 98.4 | 105 | 98.3
11 | CN(Cc1cc(Br)cc(Br)c1N)C1CCCCC1 [bromhexine] | 0 | 0 | 0 | 0 | 0 | > 10 | > 10 | > 10 | > 10 | > 10 | 110 | 97.9 | 106 | 102 | 103 | 99.2 | 108 | 107 | 97.9 | 108 | 96.2 | 109 | 100 | 97.9 | 94.6 | 92 | 90.7 | 95.1 | 90.9 | 95.4 | 98.9 | 105 | 96.3 | 99.5 | 98.2
12 | CN1CCC(=C2c3ccccc3CC(=O)c3sccc32)CC1 [ketotifen] | 0.4 | 0.8 | 0.1 | 0 | 0 | > 10 | > 10 | > 10 | > 10 | > 10 | 99.4 | 93.6 | 96.4 | 98.4 | 84.9 | 98.5 | 96.9 | 112 | 92.9 | 84.9 | 110 | 101 | 94.1 | 89.7 | 96.3 | 108 | 93 | 101 | 95.5 | 105 | 101 | 99.3 | 103 | 96 | 103
13 | CN(C)CCNc1nc2cc(O)ccc2c2c1C(=O)c1ccccc1-2 [TAS-103] | 13.4 | 19.7 | 9.6 | 11.1 | 11.5 | 0.634 | 0.19 | 0.915 | 0.67 | 0.975 | 101 | 106 | 84.8 | 40 | 0.1 | 100 | 95.9 | 66.3 | 15.5 | 0.3 | 102 | 104 | 102 | 56.8 | 22.3 | 109 | 93.4 | 89.1 | 50.4 | 15.4 | 99.4 | 95.3 | 95.3 | 49.5 | 0
14 | Nc1ccn([C@H]2CC[C@@H](CO)O2)c(=O)n1 [zalcitabine] | 0 | 0 | 0 | 0 | 0 | > 10 | > 10 | > 10 | > 10 | > 10 | 102 | 104 | 100 | 99.1 | 90.9 | 101 | 93.1 | 98.3 | 94.8 | 98.9 | 94.2 | 99.2 | 90.6 | 93.5 | 98.7 | 99.2 | 91.1 | 103 | 101 | 106 | 101 | 105 | 94.2 | 97.2 | 99.1
